Source: ChEMBL document CHEMBL1201862, “PubChem BioAssay data set” (2004)
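In this assay, cells in 96-well plates receive the compound at five concentrations for 48 hours. Endpoints are linearly interpolated between the surrounding concentrations. At the GI50, growth is halved.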 The source made the active and inactive calls. Cut-off read from the data, not from the text of the source: active = GI50 up to about 1.1 µM and inactive = higher.

Assays:
Assay in all cases: DTP human tumour cell line panel, 48 h
786-0 = tested on: 786-0
A498 = tested on: A498
A549 = tested on: A549
ACHN = tested on: ACHN
BT-549 = tested on: BT-549
CAKI-1 = tested on: CAKI-1
CCRF-CEM = tested on: CCRF-CEM
COLO 205 = tested on: COLO 205
DLD-1 = tested on: DLD-1
DMS-114 = tested on: DMS-114
DMS-273 = tested on: DMS-273
DU-145 = tested on: DU-145
EKVX = tested on: EKVX
HCC 2998 = tested on: HCC 2998
HCT-116 = tested on: HCT-116
HCT-15 = tested on: HCT-15
HL-60 = tested on: HL-60
HOP-18 = tested on: HOP-18
HOP-62 = tested on: HOP-62
HOP-92 = tested on: HOP-92
HT-29 = tested on: HT-29
Hs-578T = tested on: Hs-578T
IGROV-1 = tested on: IGROV-1
K562 = tested on: K562
KM-20L2 = tested on: KM-20L2
KM12 = tested on: KM12
LOX IMVI = tested on: LOX IMVI
LXFL 529 = tested on: LXFL 529
M14 = tested on: M14
M19-MEL = tested on: M19-MEL
MCF7 = tested on: MCF7
MDA-MB-231 = tested on: MDA-MB-231
MDA-MB-435 = tested on: MDA-MB-435
MDA-N = tested on: MDA-N
MOLT-4 = tested on: MOLT-4
Malme-3M = tested on: Malme-3M
NCI-H226 = tested on: NCI-H226
NCI-H23 = tested on: NCI-H23
NCI-H460 = tested on: NCI-H460
NCI-H522 = tested on: NCI-H522
NCI/ADR-RES = tested on: NCI/ADR-RES
OVCAR-3 = tested on: OVCAR-3
OVCAR-4 = tested on: OVCAR-4
OVCAR-5 = tested on: OVCAR-5
OVCAR-8 = tested on: OVCAR-8
PC-3 = tested on: PC-3
RPMI-8226 = tested on: RPMI-8226
RXF 393 = tested on: RXF 393
SF-268 = tested on: SF-268
SF-295 = tested on: SF-295
SF-539 = tested on: SF-539
SK-MEL-28 = tested on: SK-MEL-28
SK-MEL-2 = tested on: SK-MEL-2
SK-MEL-5 = tested on: SK-MEL-5
SK-OV-3 = tested on: SK-OV-3
SN12C = tested on: SN12C
SNB-19 = tested on: SNB-19
SNB-75 = tested on: SNB-75
SNB-78 = tested on: SNB-78
SR = tested on: SR
SW-620 = tested on: SW-620
T47D = tested on: T47D
TK-10 = tested on: TK-10
U-251 = tested on: U-251
UACC-257 = tested on: UACC-257
UACC-62 = tested on: UACC-62
UO-31 = tested on: UO-31

O=C1C=C(NCCc2ccccc2)c2ccccc2C1=O
GI50 (786-0): 3.64 µM (inactive)
GI50 (A498): 3.71 µM (inactive)
GI50 (A549): 1.95 µM (inactive)
GI50 (ACHN): 2.82 µM (inactive)
GI50 (BT-549): 2.23 µM (inactive)
GI50 (CAKI-1): 9.48 µM (inactive)
GI50 (CCRF-CEM): 12.3 µM (inactive)
GI50 (COLO 205): 1.83 µM (inactive)
GI50 (DLD-1): 6.03 µM (inactive)
GI50 (DMS-114): 1.92 µM (inactive)
GI50 (DMS-273): 2.77 µM (inactive)
GI50 (DU-145): 1.75 µM (inactive)
GI50 (EKVX): 5.78 µM (inactive)
GI50 (HCC 2998): 1.79 µM (inactive)
GI50 (HCT-116): 4.95 µM (inactive)
GI50 (HCT-15): 1.67 µM
GI50 (HL-60): 1.69 µM (inactive)
GI50 (HOP-18): 1.63 µM (inactive)
GI50 (HOP-62): 2.55 µM (inactive)
GI50 (HOP-92): 12.5 µM (inactive)
GI50 (HT-29): 3.49 µM (inactive)
GI50 (Hs-578T): 2.08 µM (inactive)
GI50 (IGROV-1): 7.28 µM (inactive)
GI50 (K562): 4.34 µM (inactive)
GI50 (KM-20L2): 6.95 µM (inactive)
GI50 (KM12): 2.63 µM (inactive)
GI50 (LOX IMVI): 1.43 µM (inactive)
GI50 (LXFL 529): 5.86 µM (inactive)
GI50 (M14): 1.59 µM (inactive)
GI50 (M19-MEL): 0.276 µM (active)
GI50 (MCF7): 1.67 µM (inactive)
GI50 (MDA-MB-231): 5.86 µM (inactive)
GI50 (MDA-MB-435): 0.925 µM (active)
GI50 (MDA-N): 1.78 µM (inactive)
GI50 (MOLT-4): 7.33 µM (inactive)
GI50 (Malme-3M): 1.06 µM (active)
GI50 (NCI-H226): 2.06 µM (inactive)
GI50 (NCI-H23): 2.33 µM (inactive)
GI50 (NCI-H460): 1.57 µM (inactive)
GI50 (NCI-H522): 1.71 µM (inactive)
GI50 (NCI/ADR-RES): 4.11 µM (inactive)
GI50 (OVCAR-3): 1.44 µM (inactive)
GI50 (OVCAR-4): 3.93 µM (inactive)
GI50 (OVCAR-5): 1.98 µM (inactive)
GI50 (OVCAR-8): 6.38 µM (inactive)
GI50 (PC-3): 5.25 µM (inactive)
GI50 (RPMI-8226): 14.8 µM (inactive)
GI50 (RXF 393): 6.65 µM (inactive)
GI50 (SF-268): 7.24 µM (inactive)
GI50 (SF-295): 1.98 µM (inactive)
GI50 (SF-539): 2.19 µM (inactive)
GI50 (SK-MEL-28): 1.87 µM (inactive)
GI50 (SK-MEL-2): 1.91 µM (inactive)
GI50 (SK-MEL-5): 1.09 µM (active)
GI50 (SK-OV-3): 13.9 µM (inactive)
GI50 (SN12C): 1.85 µM (inactive)
GI50 (SNB-19): 2.81 µM (inactive)
GI50 (SNB-75): 1.69 µM (inactive)
GI50 (SNB-78): 16.6 µM (inactive)
GI50 (SR): 5.94 µM (inactive)
GI50 (SW-620): 1.85 µM (inactive)
GI50 (T47D): 16.7 µM (inactive)
GI50 (TK-10): 14.2 µM (inactive)
GI50 (U-251): 4.75 µM (inactive)
GI50 (UACC-257): 1.53 µM (inactive)
GI50 (UACC-62): 1.79 µM (inactive)
GI50 (UO-31): 3.72 µM (inactive)
